Source: patent US20180105793A1, “DEVICE WITH MULTIPLE MICROENVIRONMENTS AND METHODS THEREOF” (WASHINGTON UNIVERSITY, priority 2016, published 2018)
Entries after “also recorded” stand apart in the source; their conditions may differ.

What was measured:
MCF10A cells [1] = assay: Immunofluorescent staining for E-cadherin (cell-cell junctions); format: cell-based, Human; details: 4 mM EGTA vs untreated
MCF10A cells [2] = assay: Collective cell migration assay on modular polyacrylamide (mPA) dual-stiffness substrate; format: cell-based, Human
Experimental: Human mammary epithelial non-tumorigenic MCF10A cells were cultured in DMEM-F12 (GE Healthcare Life Sciences), supplemented with 5% horse serum (Invitrogen), 20 ng/mL epidermal growth factor (EGF, Miltenyi Biotec Inc), […] hydrocortisone (Sigma-Aldrich), 100 ng/mL cholera toxin (Sigma-Aldrich), 10 μg/mL insulin (Sigma-Aldrich), and 1% (v/v) penicillin-streptomycin (Sigma-Aldrich). Tumorigenic mammary epithelial MCF7 cells were grown in DMEM (Sigma-Aldrich) containing 10% fetal bovine serum (FBS), 1% (v/v) penicillin-streptomycin (Sigma-Aldrich), and 1% non-essential amino acids (0.1 mM). Human epidermoid carcinoma A431 cells were grown in DMEM (Sigma-Aldrich) containing 10% fetal bovine serum (FBS), 1% (v/v) penicillin-streptomycin (Sigma-Aldrich), 1% sodium pyruvate (Sigma-Aldrich), 1% sodium bicarbonate (Sigma-Aldrich), and 1% non-essential amino acids (0.1 mM). A PDMS stencil was designed and fabricated with a rectangular opening in the center, restricting the culture of epithelial monolayer within the central module (primary ECM) of mPA substrate (see e.g., FIG. 13A). PDMS stencils were air-dried, cleaned with 70% ethanol, and sterilized under UV light for 2 h. Afterwards, stencils were passivated overnight, with a sterile solution of 1% Pluronic and 1% Bovine serum albumin (BSA) in Phosphate buffered saline (PBS) to avoid cell adhesion, and carefully positioned on the PA gels. Cell suspension with 2×10^4 cells was dispensed into the PDMS reservoir covering the primary ECM region and left to grow for a prescribed duration of priming (1, 2, or 3 days) at 37° C. in a 5% CO2 humidified incubator. After this incubation period, the PDMS stencil was lifted off to allow cell sheet to migrate into the adjoining secondary ECM. Additional media was added to each well. For proliferation inhibition experiments, cells were treated with 2 mM thymidine (Sigma-Aldrich) after at least 6 h of cell seeding, to allow adequate attachment of cells to the substrate. For calcium chelation experiments, cells were incubated with 4 mM of EGTA (Sigma-Aldrich) after 3-day priming. […] Subsequently, coordinates of the leading edge were imported into a custom-made program in MATLAB and its advancement was calculated by averaging the distance of each point on the leading edge from the primary-secondary ECM interface. […] Cell migration tracks were subsequently analyzed to obtain migration speed and velocity angle distribution. Migration speed was calculated as a ratio between the sum of distances traveled by the cell between each time point and the total time. For each time interval, the angle between instantaneous velocity vector and the x axis was calculated and plotted the angle distribution for the entire migration tracking period.

SMILES	cell-cell communication / cell-cell junctions (E-cadherin images) (MCF10A cells [1])	memory-dependent migration of the leading edge (MCF10A cells [2]; MCF10A monolayer, 4 mM EGTA after 3-day priming)	trend of mechanical memory-dependent migration (MCF10A cells [2]; MCF10A monolayer, 2 mM thymidine (proliferation inhibition))	cell migration speeds (leading edge) (MCF10A cells [2]; MCF10A monolayer, 2 mM thymidine (proliferation inhibition), secondary ECM after priming, vs untreated cells)	cell spreading (spreading area of individual cells in the secondary ECM) (MCF10A cells [2]; MCF10A, 2 mM thymidine, with vs without proliferation inhibition)
O=C(O)CN(CCOCCOCCN(CC(=O)O)CC(=O)O)CC(=O)O [EGTA]	disrupts cell-cell communication; also recorded: dysfunctional cell-cell junctions	preserved	–	–	–
Cc1cn([C@H]2C[C@H](O)[C@@H](CO)O2)c(=O)[nH]c1=O [thymidine]	–	–	held true	increased	increased spreading
